Data on 2 compounds can be found in patent US20240246960A1 (adMare Therapeutics Society, priority 2021, published 2024).

For orientation: IC50 means the point on the concentration scale where inhibition reaches its midpoint. By EC50 is commonly meant the concentration that produces a half-maximal response. As a reminder, the microsomal CLint is the rate of metabolic loss divided by the concentration. What is called hepatocyte CLint is the capacity of the preparation to metabolise the compound, expressed as a volume cleared per time. High values mean rapid turnover, low ones slow turnover.

In one series the target is T1, DNA-PK (Homo sapiens, UniProt P78527).
T1 construct: purchased Invitrogen PR9107A
The series is described as follows: DNA-PK Assay for Biochemical Enzymatic Inhibition (ADP Glo Kinase assay). The note with it: Table 1. Summed up:
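Human DNA-PK (25 ng) preincubated 15 min with compounds (ten three-fold dilutions) in HEPES pH 7.5, MgCl2, KCl, calf thymus DNA buffer, then substrate 434.4 μM and ATP 64.4 μM (final) for 60 min at room temperature. ADP-Glo luminescence; percent inhibition fitted by four-parameter regression for IC50.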
A general note: ADP-Glo first removes unused ATP, then detects ADP through luciferase.

In series [1] the target is T2, pDNA-PK ser2056 induction in FaDU spheroids (Homo sapiens, UniProt P78527).
T2 construct: host or cells: FaDu
The series can be described thus: Multicellular tumour spheroid + radiation, pDNA-PK inhibition, FaDU. Conditions: 20 Gy. Type of series: cell-based. On the procedure: (§1) Multicellular tumour spheroids determination of compound inhibition of pDNA-PK induction following radiation. Tumour spheroids were grown to approximately 0.5 mm in diameter and irradiated with 20 Gy in combination with inhibitor test compounds to determine their potency. Inhibitor concentration for 50% reduction in pDNA-PK induction (IC50) was determined via immunohistochemical staining in spheroid cryosections taken 2 hours following radiation. For cell survival endpoint 8 Gy radiation was used and 3 hours following radiation spheroids were dissociated, counted and plated for colony forming endpoint.
Spheroid+radiation pDNA-PK. Radiation: 20 Gy. Drug: serial dilution 5 or 10 μM down to 3.5 nM (11 wells). Spheroids: 3-6 spheroids per well (300-500 μm diameter). 20% O2 and 5% CO2. 96 well plate format. Endpoint: fluorescent immunostain pDNA-PK ser2056 and image on microscope. Analysis: determine EC50 concentrations that decreases pDNA-PK induction […] after irradiation.
(§2) Multicellular tumour spheroids were used to determine potency of test compounds in a 3D tissue environment using inhibition of pDNA-PK induction following radiation or cell survival as the endpoint. For the pDNA-PK endpoint HCT116 or FaDU tumour spheroids were grown to approximately 0.5 mm in diameter and irradiated with 20 Gy in combination with inhibitor test compounds to determine their potency. Experiments were carried out in 96 well plates containing 0.7 mls of MEM media containing 10% FBS and 10 mM glucose under 20% O2 & 5% CO2 at 37° C. Following dilution of compounds 1:1000 from DMSO stocks, compounds were serially diluted from 10 μM down to 3.5 nM and 5-10 spheroids added. 96 well plates were constantly stirred to avoid spheroids settling during the course of the experiment. The inhibitor concentration for 50% reduction in pDNA-PK induction (EC50) was determined via immunohistochemical staining in spheroid cryosections taken 2 hours following radiation using anti-pDNA-PK (ser 2056) and fixed immediately in formalin following sectioning. For cell survival endpoint 8 Gy radiation was used and, 3 hours following radiation, spheroids were dissociated, counted and plated for colony forming endpoint. Data presented in the table compound potency as EC50 [μM].

A further series concerns HCT116 spheroids. The series can be described thus: Spheroid + radiation colony forming cell survival assay (SF), HCT116. The format is cell-based. The note with it: 8 Gy. On the procedure: as §1
Spheroid+radiation colony forming cell survival assay (SF). Radiation 8 Gy. Drug: serial dilution 5 μM down to 10 nM (12 wells×2 repeat). Spheroids: 5-10 spheroids per well ([…]). HCT116. 5% O2 and 5% CO2. 96 well pate format for assay. Protocol: pre incubate 1 hour with drug, irradiate 8 Gy, post incubate 3 hrs with drug, dissociate spheroids and count cells and plate for colony forming assay. Endpoint: wait 4-7 days and count colonies. Analysis: determine EC50 concentration that increase cell kill by 50% over radiation alone.
as §2

Series [2] is described as follows: Microsomal stability assay, human liver microsomes. The note with it: for microsomal CLint at 0.1 uM: both sexes, human, liver microsomes, pH 7.4, 0.1 mg/mL microsomes, 0.1 uM compound. The format is in vitro ADME. On the procedure:
Samples were then mixed and centrifuged. Supernatants were used for HPLC-MS/MS analysis. […] Peak areas corresponding to the test compound were recorded.

Series [3] can be described thus: Hepatocyte stability assay, mouse hepatocytes. Type of series: in vitro ADME. The note with it: for hepatocyte CLint at 1 uM: male, CD-1, mouse, cryopreserved hepatocytes, pH 7.3, 0.7 million cells per mL, 1 uM compound. Summed up: (§3)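 Pooled cryopreserved hepatocytes (male CD-1 mouse, or mixed-gender human donors; ≥10 each) at 0.7 million viable cells/mL in Krebs-Henseleit buffer pH 7.3, with 1 uM compound (≤0.01% DMSO). Incubated up to 2 h at 37 °C/5% CO2, quenched with acetonitrile; parent compound followed by HPLC-MS/MS peak area.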

A short description of series [4]: Hepatocyte stability assay, human hepatocytes. Type of series: in vitro ADME. The note with it: for hepatocyte CLint at 1 uM: both sexes, human, cryopreserved hepatocytes, pH 7.3, 0.7 million cells per mL, 1 uM compound. In outline: as §3
A short description of series [5]: Microsomal stability assay, mouse liver microsomes. Conditions: for microsomal CLint at 0.1 uM: male, CD-1, mouse, liver microsomes, pH 7.4, Microsomal Stability Mouse Clint, 0.1 mg/mL microsomes, 0.1 uM compound. A general note: Liver microsomes are a subcellular fraction often used to study metabolism.
The mark [6] stands for this setting: Example 8, spheroid, read-out: Cell line: FaDU Immunohistochemical endpoint pDNA-PK inhibition EC50.
The mark [7] stands for this setting: Example 9 Study 2, 20% O2, read-out: Spheroid Cell line: FaDU Immunohistochemical endpoint pDNA-PK inhibition EC50.
Setting [8] is: Example 8, spheroid, read-out: Cell line: HCT116 Colony forming endpoint Surviving Fraction EC50.
[9] abbreviates: Example 9 Study 2, read-out: Spheroid Cell line: HCT116 Colony forming endpoint Surviving Fraction EC50.

Read-outs that look alike come from different tables or passages of the source. Bounds are passed on as bounds.

Turning to `c1cnc(N[C@H]2CC[C@@H](Oc3nc(N4CCOCC4)cc4ncccc34)CC2)nc1` [Compound 20a, N-((1s,4s)-4-((7-Morpholino-1,6-naphthyridin-5-yl)oxy)cyclohexyl)pyrimidin-2-amine], the IC50 on DNA-PK was in the range of 0.5 to 1 nM. The EC50 in series [1] (setting [6]) is 500 to 1000 nM; in series [1] (setting [7]) it was 500 to 1000 nM; in the series on HCT116 spheroids (setting [8]) it was 10 to 500 nM; in the series with HCT116 spheroids (setting [9]), 10 to 500 nM. Besides, in series [2], the “Microsomal Stability (human) % rem. 60 min” value is given as “F (% remaining = 25-50%)”. Also, the microsomal CLint at 0.1 uM in series [2] and in series [5] was > 116 µL/min/mg throughout. Further, the “Hepatocyte Stability (mouse) % rem. 120 min” value in series [3] is reported as “F (% remaining = 25-50%)”. Further, the hepatocyte CLint at 1 uM in series [3] and in series [4] was > 8.2 µL/min/1e6 cells throughout. Besides, the “Hepatocyte Stability (human) % rem. 120 min” value in series [4] is listed as “F (% remaining = 25-50%)”. In addition, the “Microsomal Stability (mouse) % rem. 60 min” value in series [5] is listed as “E (% remaining = 0-25%)”.

Consider `O=C(N[C@H]1CC[C@@H](Oc2nc(N3CCOCC3)cc3ncccc23)CC1)c1ncccn1` [Compound 123, N-((1s,4s)-4-((7-Morpholino-1,6-naphthyridin-5-yl)oxy)cyclohexyl)pyrimidine-2-carboxamide], for which, at DNA-PK, the 50% inhibitory concentration (IC50) was < 0.5 nM. Also, the EC50 (in series [1] (setting [6]); in series [1] (setting [7]); in the series on HCT116 spheroids (setting [8]); in the series with HCT116 spheroids (setting [9])) was 10 to 500 nM throughout. Further, the “Microsomal Stability (human) % rem. 60 min” value in series [2] is given as “H (% remaining = 75-100%)”. The microsomal CLint at 0.1 uM in series [2] and in series [5] was < 116 µL/min/mg each time. The “Hepatocyte Stability (mouse) % rem. 120 min” value in series [3] was “G (% remaining = 50-75%)”. Besides, the intrinsic clearance (hepatocyte CLint) at 1 uM in series [3] and in series [4] was < 8.2 µL/min/1e6 cells throughout. Besides, the “Hepatocyte Stability (human) % rem. 120 min” value in series [4] is “H (% remaining = 75-100%)”. Further, the “Microsomal Stability (mouse) % rem. 60 min” value in series [5] was “G (% remaining = 50-75%)”.
